Experimental data as given in US5310757A, “3,3,5-trimethylcyclohexyl 2-methylpropionate derivatives, their method of preparation and therapeutic compositions in which they are present” (Panmedica, priority 1989, dated 1994).

Columns and labels:
[1] = target: T1, 3-hydroxy-3-methylglutaryl-CoA reductase (Rattus norvegicus, UniProt P51639); assay: inhibition of 3-hydroxy-3-methylglutaryl-CoA reductase activity (method of Kuroda et al.); format: biochemical; settings: concentration for 50% inhibition of 3-hydroxy-3-methylglutaryl-CoA reductase activity
T1 construct: from tissue
T1 sequence (P51639 1-887): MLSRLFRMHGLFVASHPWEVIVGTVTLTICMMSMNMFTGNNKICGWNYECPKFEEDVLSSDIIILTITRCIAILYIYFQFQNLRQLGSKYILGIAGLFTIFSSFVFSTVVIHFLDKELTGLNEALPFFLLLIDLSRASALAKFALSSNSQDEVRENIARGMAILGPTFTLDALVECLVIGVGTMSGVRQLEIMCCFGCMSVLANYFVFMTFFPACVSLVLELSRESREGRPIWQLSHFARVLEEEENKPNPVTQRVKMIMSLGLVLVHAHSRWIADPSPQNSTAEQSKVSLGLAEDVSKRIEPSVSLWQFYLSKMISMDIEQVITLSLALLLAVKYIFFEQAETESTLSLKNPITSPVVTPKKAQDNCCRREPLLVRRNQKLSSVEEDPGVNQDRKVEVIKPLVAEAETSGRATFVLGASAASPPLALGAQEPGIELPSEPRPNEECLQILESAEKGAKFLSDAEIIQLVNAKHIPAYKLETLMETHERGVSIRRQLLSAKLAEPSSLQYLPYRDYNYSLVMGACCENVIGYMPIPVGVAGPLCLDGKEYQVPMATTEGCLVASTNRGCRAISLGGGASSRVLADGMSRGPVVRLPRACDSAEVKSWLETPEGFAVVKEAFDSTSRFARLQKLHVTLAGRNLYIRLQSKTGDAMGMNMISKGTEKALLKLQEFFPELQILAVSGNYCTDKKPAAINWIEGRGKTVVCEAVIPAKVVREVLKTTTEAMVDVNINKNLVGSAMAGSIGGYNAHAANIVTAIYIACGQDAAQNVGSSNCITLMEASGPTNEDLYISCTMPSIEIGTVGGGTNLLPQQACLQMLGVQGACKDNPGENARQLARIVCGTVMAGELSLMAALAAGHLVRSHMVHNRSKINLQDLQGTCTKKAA
Protocol: The biosynthesis of cholesterol in an isolated enzymatic system or in a cell culture from organs removed from experimental animals is inhibited by limiting the activity of the enzyme 3-hydroxy-3-methylglutaryl-CoA reductase.
The inhibitory activity of the products according to the present invention was determined by the method of Kuroda et al. (Biochemica et Biophysica Acta, vol. 486, pp. 70-81 (1977)), which is a modification of the method of Shapiro et al. (Analytical Biochemistry, vol. 31, pp. 383-390 (1969)). The results are summarized in Table II, where IC50 is the concentration of product in the experimental medium which is necessary to achieve a 50% inhibition of the 3-hydroxy-3-methylglutaryl-CoA reductase activity, expressed in nanomol.

[2] = system: hyperlipidaemia caused by TRITON 1339; assay: test for the hyperlipidaemia caused by TRITON 1339; format: in vivo; settings: rats, Triton test after oral administration for six days, 0.5 millimol per kilogram; for HDL cholesterol: Control 0.7 ± 0.1, Triton 0.8 ± 0.1; for Triglycerides: Control 1 ± 0.3, Triton 10 ± 7; for Total cholesterol: Control 2 ± 0.15, Triton 9 ± 3; for Total lipids: Control 3.5 ± 0.4, Triton 20 ± 10
Protocol: The Table below summarizes the results of the pharmacological studies carried out especially by means of the test for the hyperlipidaemia caused by TRITON 1339. The experimental protocol was that published by J. C. […] et al. (Gaz. Med. France, 3rd inter. coll. 1982, Dijon, 18-22). The tests are performed on groups of 7 rats weighing from 280 to 290 g. The Triton test is carried out after oral administration for six days at a rate of 0.5 millimol per kilogram of body weight. The following lipid parameters are measured: total cholesterol, triglycerides, total lipids and HDL cholesterol.

HMG-CoA red. = HMG-CoA red. activity "ex vivo" in liver microsomes after chronic intraperitoneal administration to rats; set-up: Mevalonate formed: unit not given here; settings: 50 mg/kg for 6 days; for Mevalonate formed: Control 17; for % inhibition: inhibition of HMG-CoA red. activity, Control 0
Protocol: The inhibitory activity of the products according to the present invention was determined by the method of Kuroda et al. (Biochemica et Biophysica Acta, vol. 486, pp. 70-81 (1977)), which is a modification of the method of Shapiro et al. (Analytical Biochemistry, vol. 31, pp. 383-390 (1969)). […] The doses administered were 50 mg/kg for 6 days; six rats were used in each series; they are sacrificed without anaesthesia and the liver microsomes are isolated for the assay, which is performed according to the above-mentioned protocol.

SMILES | IC50 [1] | HDL cholesterol [2] | Triglycerides [2] | Total cholesterol [2] | Total lipids [2] | Mevalonate formed (HMG-CoA red.) | % inhibition (HMG-CoA red.)
CCC(=O)c1ccc(OC(C)(C)C(=O)O[C@H]2C[C@@H](C)CC(C)(C)C2)cc1 (relative stereo) [Example 10, (CIS) 3,3,5-TRIMETHYLCYCLOHEXYL 2-(4-PROPIONYLPHENOXY)-2-METHYLPROPIONATE] | 37.6 nM |  |  |  |  |  | 
C[C@@H]1C[C@H](OC(=O)C(C)(C)Oc2ccc(-c3ccccc3)cc2)CC(C)(C)C1 (relative stereo) [Example 8, (CIS) 3,3,5-TRIMETHYLCYCLOHEXYL 2-(4-PHENYLPHENOXY)-2-METHYLPROPIONATE] |  | 1.1 ± 0.2 mmol/L | 6.0 ± 4 mmol/L | 3.0 ± 0.2 mmol/L | 3.6 ± 0.2 g/L |  | 
C[C@@H]1C[C@H](OC(=O)C(C)(C)Oc2ccc(C(=O)Cc3ccccc3)cc2)CC(C)(C)C1 (relative stereo) [Example 18, (CIS) 3,3,5-TRIMETHYLCYCLOHEXYL 2-(4-PHENYLACETYLPHENOXY)-2-METHYLPROPIONATE] | 32.9 nM |  |  |  |  |  | 
CC(=O)c1ccc(OC(C)(C)C(=O)O[C@H]2C[C@H](C)CC(C)(C)C2)c(Cl)c1 (relative stereo) [Example 11, (TRANS) 3,3,5-TRIMETHYLCYCLOHEXYL 2-(4-ACETYL-2-CHLOROPHENOXY)-2-METHYLPROPIONATE] |  | 1.0 ± 0.1 mmol/L | 1.0 ± 0.1 mmol/L | 1.8 ± 0.4 mmol/L | 11 ± 5 g/L |  | 
C[C@H]1C[C@H](OC(=O)C(C)(C)Oc2ccc(C(=O)c3ccc(Cl)cc3)cc2)CC(C)(C)C1 (relative stereo) [Example 1, (TRANS) 3,3,5-TRIMETHYLCYCLOHEXYL 2-(4-(4-CHLOROBENZOYL)PHENOXY)-2-METHYLPROPIONATE] |  | 1.5 ± 0.4 mmol/L | 0.8 ± 0.1 mmol/L | 3.5 ± 1.4 mmol/L | 3.6 ± 0.5 g/L | 4.44 | 74%
CC(=O)c1ccc(OC(C)(C)C(=O)O[C@H]2C[C@@H](C)CC(C)(C)C2)cc1 (relative stereo) [Example 16, (CIS) 3,3,5-TRIMETHYLCYCLOHEXYL 2-(4-ACETYLPHENOXY)-2-METHYLPROPIONATE] | 45.9 nM |  |  |  |  |  | 
CC(=O)c1cccc(OC(C)(C)C(=O)O[C@H]2C[C@@H](C)CC(C)(C)C2)c1 (relative stereo) [Example 14, (CIS) 3,3,5-TRIMETHYLCYCLOHEXYL 2-(3-ACETYLPHENOXY)-2-METHYLPROPIONATE] |  | 2.1 ± 0.1 mmol/L | 6.0 ± 3.0 mmol/L | 3.0 ± 0.3 mmol/L | 4.8 ± 0.6 g/L |  | 
CC(=O)c1ccc(OC(C)(C)C(=O)O[C@H]2C[C@@H](C)CC(C)(C)C2)c(Cl)c1 (relative stereo) [Example 12, (CIS) 3,3,5-TRIMETHYLCYCLOHEXYL 2-(4-ACETYL-2-CHLOROPHENOXY)-2-METHYLPROPIONATE] | 21.9 nM |  |  |  |  |  | 
CC(=O)c1ccc(OC(C)(C)C(=O)O[C@@H]2C[C@@H](C)CC(C)(C)C2)cc1 (relative stereo) [Example 15, (TRAMS) 3,3,5-TRIMETHYLCYCLOHEXYL 2-(4-ACETYLPHENOXY)-2-METHYLPROPIONATE] |  | 1.7 ± 0.1 mmol/L | 1.7 ± 1.2 mmol/L | 2.8 ± 0.2 mmol/L | 3.0 ± 0.3 g/L |  | 
CCC(=O)c1ccc(OC(C)(C)C(=O)O[C@H]2C[C@H](C)CC(C)(C)C2)cc1 (relative stereo) [Example 9, (TRANS) 3,3,5-TRIMETHYLCYCLOHEXYL 2-(4-PROPIONYLPHENOXY)-2-METHYLPROPIONATE] |  | 2.0 ± 0.6 mmol/L | 1.6 ± 0.3 mmol/L | 2.5 ± 0.6 mmol/L | 5.0 ± 0.2 g/L |  | 
Cc1cc(C)cc(OCCCCC(C)(C)C(=O)O[C@H]2C[C@@H](C)CC(C)(C)C2)c1 (relative stereo) [Example 22, (CIS) 3,3,5-TRIMETHYLCYCLOHEXYL 2-(4-(3,5-DIMETHYLPHENOXY)BUTYL)-2-METHYLPROPIONATE] | 30.2 nM |  |  |  |  |  | 
Cc1ccc(OCCCCC(C)(C)C(=O)O[C@H]2C[C@@H](C)CC(C)(C)C2)c(C)c1 (relative stereo) [Example 21, (CIS) 3,3,5-TRIMETHYLCYCLOHEXYL 2-(4-(2,4-DIMETHYLPHENOXY)BUTYL)-2-METHYLPROPIONATE] |  |  |  |  |  | 3.8 | 78%
Cc1ccc(C)c(OCCCC(C)(C)C(=O)O[C@H]2C[C@H](C)CC(C)(C)C2)c1 (relative stereo) [Example 6, (TRANS) 3,3,5-TRIMETHYLCYCLOHEXYL 2-(3-(2,5-DIMETHYLPHENOXY)PROPYL)-2-METHYLPROPIONATE] |  | 0.9 ± 0.3 mmol/L | 1.7 ± 0.3 mmol/L | 2.0 ± 0.2 mmol/L | 8.0 ± 3 g/L | 6.01 | 65%
CC(=O)c1cccc(OC(C)(C)C(=O)O[C@H]2C[C@H](C)CC(C)(C)C2)c1 (relative stereo) [Example 13, (TRANS) 3,3,5-TRIMETHYLCYCLOHEXYL 2-(3-ACETYLPHENOXY)-2-METHYLPROPIONATE] | 35.7 nM |  |  |  |  |  | 
C[C@H]1C[C@H](OC(=O)C(C)(C)Oc2ccc(C(=O)Cc3ccccc3)cc2)CC(C)(C)C1 (relative stereo) [Example 17, (TRANS) 3,3,5-TRIMETHYLCYCLOHEXYL 2-(4-PHENYLACETYLPHENOXY)-2-METHYLPROPIONATE] |  |  |  |  |  | 8.66 | 50%
C[C@H]1C[C@H](OC(=O)C(C)(C)Oc2ccc(CCNC(=O)c3ccc(Cl)cc3)cc2)CC(C)(C)C1 (relative stereo) [Example 3, (TRANS) 3,3,5-TRIMETHYLCYCLOHEXYL 2-(4-(2-(4-CHLOROBENZAMIDO)ETHYL)PHENOXY)-2-METHYLPROPIONATE] | 39 nM | 1.6 ± 0.4 mmol/L | 1.2 ± 0.4 mmol/L | 1.2 ± 0.7 mmol/L | 3.8 ± 0.5 g/L |  | 
C[C@@H]1C[C@H](OC(=O)C(C)(C)CCCCOc2ccccc2)CC(C)(C)C1 (relative stereo) [Example 20, (CIS) 3,3,5-TRIMETHYLCYCLOHEXYL 2-(4-PHENOXYBUTYL)-2-METHYLPROPIONATE] | 40.5 nM |  |  |  |  |  | 
C[C@@H]1C[C@H](OC(=O)C(C)(C)Oc2ccc(CCNC(=O)c3ccc(Cl)cc3)cc2)CC(C)(C)C1 (relative stereo) [Example 4, (CIS) 3,3,5-TRIMETHYLCYCLOHEXYL 2-(4-(2-(4-CHLOROBENZAMIDO)ETHYL)PHENOXY)-2-METHYLPROPIONATE] | 25.6 nM | 2.2 ± 0.3 mmol/L | 2.5 ± 0.5 mmol/L | 2.6 ± 0.3 mmol/L | 4.8 ± 0.7 g/L |  | 
C[C@H]1C[C@H](OC(=O)C(C)(C)CCCCOc2ccccc2)CC(C)(C)C1 (relative stereo) [Example 19, (TRANS) 3,3,5-TRIMETHYLCYCLOHEXYL 2-(4-PHENOXYBUTYL)- 2-METHYLPROPIONATE] |  |  |  |  |  | 5.2 | 70%
CC(C)OC(=O)C(C)(C)Oc1ccc(C(=O)c2ccc(Cl)cc2)cc1 [Fenofibrate, isopropyl 4-(4-chlorobenzoyl)phenoxyisobutyrate, reference compound] |  |  |  |  |  | 4.16 | 
